{"source": "paper PMC3105219", "about": "(Neuropharmacology, 2011)", "key": {"[1]": {"biological_target": "mDAT (Mus musculus, UniProt Q61327)", "sequence (Q61327 whole entry)": "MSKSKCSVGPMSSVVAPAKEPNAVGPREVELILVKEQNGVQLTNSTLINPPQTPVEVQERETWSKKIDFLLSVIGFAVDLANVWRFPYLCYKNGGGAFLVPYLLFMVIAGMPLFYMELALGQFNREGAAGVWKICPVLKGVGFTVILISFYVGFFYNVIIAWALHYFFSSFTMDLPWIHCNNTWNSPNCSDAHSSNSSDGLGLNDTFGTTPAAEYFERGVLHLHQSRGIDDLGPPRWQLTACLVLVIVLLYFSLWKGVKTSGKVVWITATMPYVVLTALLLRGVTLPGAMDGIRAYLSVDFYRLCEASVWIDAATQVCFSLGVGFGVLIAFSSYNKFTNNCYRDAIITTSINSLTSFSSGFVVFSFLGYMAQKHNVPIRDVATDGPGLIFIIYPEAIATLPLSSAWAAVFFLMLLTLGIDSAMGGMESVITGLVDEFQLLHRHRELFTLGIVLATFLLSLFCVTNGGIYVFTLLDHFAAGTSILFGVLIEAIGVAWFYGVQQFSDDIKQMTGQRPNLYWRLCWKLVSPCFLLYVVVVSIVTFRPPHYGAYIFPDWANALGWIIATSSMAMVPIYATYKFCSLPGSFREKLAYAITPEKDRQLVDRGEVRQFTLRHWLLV", "assay": "Inhibition of [3H]dopamine uptake, wild type mDAT in transfected HeLa cells", "assay_type": "cell-based"}, "[2]": {"biological_target": "mNET (Mus musculus, UniProt O55192)", "sequence (O55192 whole entry)": "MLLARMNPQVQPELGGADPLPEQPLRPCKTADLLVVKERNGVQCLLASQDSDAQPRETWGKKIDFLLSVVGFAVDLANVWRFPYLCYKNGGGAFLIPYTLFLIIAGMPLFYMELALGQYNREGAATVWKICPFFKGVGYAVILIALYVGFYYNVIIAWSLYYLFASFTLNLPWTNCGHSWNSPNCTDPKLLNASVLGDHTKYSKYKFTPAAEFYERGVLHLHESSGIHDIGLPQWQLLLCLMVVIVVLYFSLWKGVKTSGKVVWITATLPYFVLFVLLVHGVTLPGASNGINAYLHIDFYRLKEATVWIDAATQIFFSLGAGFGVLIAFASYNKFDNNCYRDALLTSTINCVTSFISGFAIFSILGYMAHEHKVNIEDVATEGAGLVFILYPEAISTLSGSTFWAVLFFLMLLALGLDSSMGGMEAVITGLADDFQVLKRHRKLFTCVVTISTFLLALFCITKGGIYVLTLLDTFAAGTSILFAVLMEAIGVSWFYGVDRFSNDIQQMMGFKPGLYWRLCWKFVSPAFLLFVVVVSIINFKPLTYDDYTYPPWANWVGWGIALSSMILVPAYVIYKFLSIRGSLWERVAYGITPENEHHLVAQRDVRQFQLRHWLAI", "assay_type": "cell-based"}, "[3]": {"biological_target": "mNET Y151I (Mus musculus, UniProt O55192, Y151I)", "sequence (O55192 whole entry Y151I)": "as the sequence (O55192 whole entry) above, with Y151I counted along it", "assay": "Uptake inhibition, mNET Y151I mutant", "assay_type": "cell-based", "settings": "read-out: RTI-113 IC50 [nM] uptake inhibition, mean ± SEM"}, "[4]": {"biological_target": "mDAT F155Y (Mus musculus, UniProt Q61327, F155Y)", "sequence (Q61327 whole entry F155Y)": "as the sequence (Q61327 whole entry) above, with F155Y counted along it", "assay": "Uptake inhibition, mDAT F155Y mutant", "assay_type": "cell-based", "settings": "for IC50: read-out: IC50 uptake inhibition, mDAT F155Y, mean ± SEM"}, "[5]": {"biological_target": "mNET Y151W (Mus musculus, UniProt O55192, Y151W)", "sequence (O55192 whole entry Y151W)": "as the sequence (O55192 whole entry) above, with Y151W counted along it", "assay": "Uptake inhibition, mNET Y151W mutant", "assay_type": "cell-based", "settings": "read-out: RTI-113 IC50 [nM] uptake inhibition, mean ± SEM"}, "[6]": {"biological_target": "mNET Y151D (Mus musculus, UniProt O55192, Y151D)", "sequence (O55192 whole entry Y151D)": "as the sequence (O55192 whole entry) above, with Y151D counted along it", "assay": "Uptake inhibition, mNET Y151D mutant", "assay_type": "cell-based", "settings": "read-out: RTI-113 IC50 [nM] uptake inhibition, mean ± SEM"}, "[7]": {"biological_target": "mNET-TM8m (A415T/L418I/S421A/A427S/A433V/D435E) (Mus musculus, UniProt O55192, A414T/A426S/A432V/D434E/L417I/S420A)", "sequence (O55192 whole entry A414T/L417I/S420A/A426S/A432V/D434E)": "as the sequence (O55192 whole entry) above, with A414T, L417I, S420A, A426S, A432V, D434E counted along it", "assay": "Uptake inhibition, mNET-TM8m mutant", "assay_type": "cell-based", "settings": "read-out: RTI-113 IC50 [nM] uptake inhibition, mean ± SEM"}, "[8]": {"biological_target": "mNET Y151S (Mus musculus, UniProt O55192, Y151S)", "sequence (O55192 whole entry Y151S)": "as the sequence (O55192 whole entry) above, with Y151S counted along it", "assay": "Uptake inhibition, mNET Y151S mutant", "assay_type": "cell-based", "settings": "read-out: RTI-113 IC50 [nM] uptake inhibition, mean ± SEM"}, "[9]": {"biological_target": "mNET Y151K (Mus musculus, UniProt O55192, Y151K)", "sequence (O55192 whole entry Y151K)": "as the sequence (O55192 whole entry) above, with Y151K counted along it", "assay": "Uptake inhibition, mNET Y151K mutant", "assay_type": "cell-based", "settings": "read-out: RTI-113 IC50 [nM] uptake inhibition, mean ± SEM"}, "[10]": {"biological_target": "mNET Y151T (Mus musculus, UniProt O55192, Y151T)", "sequence (O55192 whole entry Y151T)": "as the sequence (O55192 whole entry) above, with Y151T counted along it", "assay": "Uptake inhibition, mNET Y151T mutant", "assay_type": "cell-based", "settings": "read-out: RTI-113 IC50 [nM] uptake inhibition, mean ± SEM"}, "[11]": {"biological_target": "mNET Y151A (Mus musculus, UniProt O55192, Y151A)", "sequence (O55192 whole entry Y151A)": "as the sequence (O55192 whole entry) above, with Y151A counted along it", "assay": "Uptake inhibition, mNET Y151A mutant", "assay_type": "cell-based", "settings": "read-out: RTI-113 IC50 [nM] uptake inhibition, mean ± SEM"}, "[12]": {"biological_target": "mNET-TM3m (Y151F/S159A/Y161H) (Mus musculus, UniProt O55192, S159A/Y151F/Y161H)", "sequence (O55192 whole entry Y151F/S159A/Y161H)": "as the sequence (O55192 whole entry) above, with Y151F, S159A, Y161H counted along it", "assay": "Uptake inhibition, mNET-TM3m mutant", "assay_type": "cell-based", "settings": "read-out: RTI-113 IC50 [nM] uptake inhibition, mean ± SEM"}, "[13]": {"system": "DAT", "settings": "ref Carroll et al., 1995, cited from earlier work"}, "[14]": {"biological_target": "mNET Y151N (Mus musculus, UniProt O55192, Y151N)", "sequence (O55192 whole entry Y151N)": "as the sequence (O55192 whole entry) above, with Y151N counted along it", "assay": "Uptake inhibition, mNET Y151N mutant", "assay_type": "cell-based", "settings": "read-out: RTI-113 IC50 [nM] uptake inhibition, mean ± SEM"}, "[15]": {"biological_target": "mNET Y151L (Mus musculus, UniProt O55192, Y151L)", "sequence (O55192 whole entry Y151L)": "as the sequence (O55192 whole entry) above, with Y151L counted along it", "assay": "Uptake inhibition, mNET Y151L mutant", "assay_type": "cell-based", "settings": "read-out: RTI-113 IC50 [nM] uptake inhibition, mean ± SEM"}, "[16]": {"biological_target": "mNET Y151E (Mus musculus, UniProt O55192, Y151E)", "sequence (O55192 whole entry Y151E)": "as the sequence (O55192 whole entry) above, with Y151E counted along it", "assay": "Uptake inhibition, mNET Y151E mutant", "assay_type": "cell-based", "settings": "read-out: RTI-113 IC50 [nM] uptake inhibition, mean ± SEM"}, "[17]": {"biological_target": "mNET Y151G (Mus musculus, UniProt O55192, Y151G)", "sequence (O55192 whole entry Y151G)": "as the sequence (O55192 whole entry) above, with Y151G counted along it", "assay": "Uptake inhibition, mNET Y151G mutant", "assay_type": "cell-based", "settings": "read-out: RTI-113 IC50 [nM] uptake inhibition, mean ± SEM"}, "[18]": {"biological_target": "mNET Y151V (Mus musculus, UniProt O55192, Y151V)", "sequence (O55192 whole entry Y151V)": "as the sequence (O55192 whole entry) above, with Y151V counted along it", "assay": "Uptake inhibition, mNET Y151V mutant", "assay_type": "cell-based", "settings": "read-out: RTI-113 IC50 [nM] uptake inhibition, mean ± SEM"}, "[19]": {"biological_target": "mNET-TM6m (T306S/I315V/F316C/A321) (Mus musculus, UniProt O55192, A321V/F316C/I315V/T306S)", "sequence (O55192 whole entry T306S/I315V/F316C/A321V)": "as the sequence (O55192 whole entry) above, with T306S, I315V, F316C, A321V counted along it", "assay": "Uptake inhibition, mNET-TM6m mutant", "assay_type": "cell-based", "settings": "read-out: RTI-113 IC50 [nM] uptake inhibition, mean ± SEM"}, "[20]": {"biological_target": "mNET Y151F (Mus musculus, UniProt O55192, Y151F)", "sequence (O55192 whole entry Y151F)": "as the sequence (O55192 whole entry) above, with Y151F counted along it", "assay": "Uptake inhibition, mNET Y151F mutant", "assay_type": "cell-based", "settings": "for IC50: read-out: IC50 uptake inhibition, mNET Y151F, mean ± SEM"}, "[21]": {"biological_target": "mNET Y151C (Mus musculus, UniProt O55192, Y151C)", "sequence (O55192 whole entry Y151C)": "as the sequence (O55192 whole entry) above, with Y151C counted along it", "assay": "Uptake inhibition, mNET Y151C mutant", "assay_type": "cell-based", "settings": "read-out: RTI-113 IC50 [nM] uptake inhibition, mean ± SEM"}, "[22]": {"system": "NET", "settings": "ref Carroll et al., 1995, cited from earlier work"}, "[23]": {"biological_target": "mNET Y151Q (Mus musculus, UniProt O55192, Y151Q)", "sequence (O55192 whole entry Y151Q)": "as the sequence (O55192 whole entry) above, with Y151Q counted along it", "assay": "Uptake inhibition, mNET Y151Q mutant", "assay_type": "cell-based", "settings": "read-out: RTI-113 IC50 [nM] uptake inhibition, mean ± SEM"}, "[24]": {"biological_target": "mNET Y151M (Mus musculus, UniProt O55192, Y151M)", "sequence (O55192 whole entry Y151M)": "as the sequence (O55192 whole entry) above, with Y151M counted along it", "assay": "Uptake inhibition, mNET Y151M mutant", "assay_type": "cell-based", "settings": "read-out: RTI-113 IC50 [nM] uptake inhibition, mean ± SEM"}}, "data": [{"smiles": "COC(=O)[C@H]1[C@@H](OC(=O)c2ccccc2)C[C@@H]2CC[C@H]1N2C", "note": "[cocaine]", "values": [{"measurement": "IC50", "setting": "[1]", "result": "318 ± 126", "unit": "nM"}, {"measurement": "IC50", "setting": "[2]", "result": "398 ± 66.8", "unit": "nM"}]}, {"smiles": "CN1[C@H]2CC[C@@H]1[C@@H](C(=O)Oc1ccccc1)[C@@H](c1ccc(Cl)cc1)C2", "note": "[RTI-113]", "values": [{"measurement": "IC50", "setting": "[3]", "result": "199 ± 65.1", "unit": "nM"}, {"measurement": "decrease in potency", "setting": "[4]; mDAT-F155Y versus wild type mDAT", "result": 20, "unit": "fold"}, {"measurement": "IC50", "setting": "[4]", "result": "13.4 ± 1.9", "unit": "nM"}, {"measurement": "IC50", "setting": "[5]", "result": "256 ± 66.9", "unit": "nM"}, {"measurement": "IC50", "setting": "[6]", "result": "306 ± 105", "unit": "nM"}, {"measurement": "IC50", "setting": "[7]", "result": "269 ± 35.8", "unit": "nM"}, {"measurement": "IC50", "setting": "[8]", "result": "99.3 ± 43.8", "unit": "nM"}, {"measurement": "IC50", "setting": "[9]", "result": "453 ± 71", "unit": "nM"}, {"measurement": "IC50", "setting": "[10]", "result": "115 ± 33.2", "unit": "nM"}, {"measurement": "IC50", "setting": "[11]", "result": "130 ± 15.1", "unit": "nM"}, {"measurement": "IC50", "setting": "[12]", "result": "1.89 ± 1.29", "unit": "nM"}, {"measurement": "potency at inhibiting DAT relative to inhibiting NET", "setting": "[13]; DAT over NET selectivity, stated in abstract", "result": 100, "unit": "x"}, {"measurement": "IC50", "setting": "[14]", "result": "291 ± 51.5", "unit": "nM"}, {"measurement": "IC50", "setting": "[15]", "result": "342 ± 110", "unit": "nM"}, {"measurement": "IC50", "setting": "[16]", "result": "770 ± 55.3", "unit": "nM"}, {"measurement": "IC50", "setting": "[17]", "result": "165 ± 28.4", "unit": "nM"}, {"measurement": "IC50", "setting": "[18]", "result": "181 ± 81.1", "unit": "nM"}, {"measurement": "IC50", "setting": "[19]", "result": "341 ± 77.2", "unit": "nM"}, {"measurement": "increase in potency for inhibition of substrate uptake", "setting": "[20]; mNET-Y151F versus wild type mNET", "result": 14, "unit": "fold"}, {"measurement": "IC50", "setting": "[20]", "result": "12.1 ± 0.8", "unit": "nM"}, {"measurement": "IC50", "setting": "[21]", "result": "211 ± 23", "unit": "nM"}, {"measurement": "loss of potency to NET compared with RTI-31", "setting": "[22]; times less potent than RTI-31", "result": "about 100 times"}, {"measurement": "IC50", "setting": "[23]", "result": "831 ± 69", "unit": "nM"}, {"measurement": "IC50", "setting": "[24]", "result": "679 ± 174", "unit": "nM"}]}, {"smiles": "COC(=O)[C@H]1[C@@H](c2ccc(Cl)cc2)C[C@H]2CC[C@H]1N2C", "note": "[RTI-31]", "values": [{"measurement": "IC50", "setting": "[4]", "result": "1.65 ± 1.19", "unit": "nM"}, {"measurement": "potency in inhibiting DAT compared with cocaine", "setting": "[13]; times more potent than cocaine", "result": 100, "unit": "x"}, {"measurement": "IC50", "setting": "[20]", "result": "1.44 ± 0.67", "unit": "nM"}, {"measurement": "potency in inhibiting NET compared with cocaine", "setting": "[22]; times more potent than cocaine", "result": 100, "unit": "x"}]}]}
